According to PubChem BioAssay AID1996:
Converted amounts (≈) assume the structure as drawn.

settings: buffer; pH 7.4; 200.0 µM

Structure (SMILES) | solubility kinetic
CC(C)(C)c1ccc(C(=O)NC(=S)N2CCCC2)cc1 | 7.2 µg/mL (≈ 24.8 µM)
COc1ccc(CNC(=O)CN(C)S(=O)(=O)c2ccccc2)cc1 | > 52.3 µg/mL
O=C(CC(c1ccccc1)c1cc(Cl)ccc1O)NCCCN1CCOCC1 (stereo not drawn) | 59.2 µg/mL (≈ 147 µM)
COc1ccc(C(=O)NCc2cc(C)nc3ccccc23)cc1OC | 39.6 µg/mL (≈ 118 µM)
COCCNc1ncnc2c1cnn2Cc1ccccc1Cl | > 47.7 µg/mL
CCc1ccccc1NC(=O)CN(C)Cc1c(O)ccc2ccccc12 | 22.8 µg/mL (≈ 65.4 µM)
O=C(NCCN1CCOCC1)c1cc(-c2ccc(F)cc2)nc2ccccc12 | 23.8 µg/mL (≈ 62.7 µM)
Cc1ccc(-c2nc3ccccn3c2C=O)cc1 | 8.5 µg/mL (≈ 36 µM)
Cc1c(C(=O)OCC(=O)NCC2CCCO2)oc2ccccc12 (stereo not drawn) | > 47.6 µg/mL
Cn1c(=O)c(=O)n(C)c2cc([N+](=O)[O-])c([N+](=O)[O-])cc21 | > 42 µg/mL
Cc1ccccc1NC(=O)CCCC(=O)c1ccccc1 | 21.9 µg/mL (≈ 77.8 µM)
Cc1cc(Nc2ccc(Cl)cc2)nc(-c2ccccc2O)n1 | 0.2 µg/mL (≈ 0.641 µM)
C=CCNC(=O)c1cc2c(=O)n3ccccc3nc2s1 | 10.4 µg/mL (≈ 36.4 µM)
Cc1cccc(C(=O)NCCC(=O)Nc2ccc(C#N)cc2)c1 | 1.3 µg/mL (≈ 4.23 µM)
Cc1ccc(OCCNC(=O)CNC(=O)c2ccc(Cl)c([N+](=O)[O-])c2)cc1 | 12.6 µg/mL (≈ 32.2 µM)
CCc1ccc(C2NC(=O)c3ccccc3O2)cc1 (stereo not drawn) | 2.8 µg/mL (≈ 11.1 µM)
Cc1ccc(C)c(/C=C2\N=C(c3ccccc3F)OC2=O)c1 | 11.8 µg/mL (≈ 40 µM)
COc1ccc(-c2csc(NC(=O)CN3C(=O)CCC3=O)n2)cc1 | 11.7 µg/mL (≈ 33.9 µM)
O=[N+]([O-])c1ccc(C(O)C(CO)NC(=S)Nc2ccccc2)cc1 (stereo not drawn) | > 52.1 µg/mL
Cc1ccc(C(=O)OCC(=O)N2c3ccccc3NC(=O)C2(C)C)cc1S(=O)(=O)N1CCCCC1 | 3.6 µg/mL (≈ 7.21 µM)
O=C(Cc1cccs1)N1CCN=C1SCc1cccc(F)c1 | 12.6 µg/mL (≈ 37.7 µM)
O=C(CCC(=O)c1cccs1)NCc1cccnc1 | > 41.2 µg/mL
COc1ccc(-c2cc(C(=O)Nc3cc(C)on3)no2)cc1OC | < 0.2 µg/mL
CC(C)C(C)NC(=O)CN1C(=O)NC2(CCc3ccccc32)C1=O (stereo not drawn) | > 49.4 µg/mL

Structure (SMILES) | solubility kinetic
O=C(COC(=O)C1CC1)NC(=O)NCc1ccccc1 | > 41.4 µg/mL
Cc1ccc2c(c1)C(=C(C#N)C#N)C(=O)N2CCN1CCOCC1 | 48.3 µg/mL (≈ 150 µM)
COc1ccccc1Nc1nc(C)nc2c1oc1ccccc12.Cl | 0.5 µg/mL
CCOc1ccc(NC(=S)NCc2ccc3c(c2)OCO3)cc1 | 17.1 µg/mL (≈ 51.8 µM)
O=C(Nc1ccccc1)c1c2c(nc3ccccc13)CCCC2 | 0.5 µg/mL (≈ 1.65 µM)
CN(Cc1ccco1)C(=O)CCc1nc2sc3c(c2c(=O)[nH]1)CCCC3 | 22.4 µg/mL (≈ 60.3 µM)
O=C(NCCN1CCOCC1)c1cc(-c2ccccc2Cl)on1 | > 50.4 µg/mL
Cc1c(N)c(C)c([N+](=O)[O-])c(C)c1[N+](=O)[O-] | 6.9 µg/mL (≈ 30.6 µM)
O=C(Nc1cc2c3c(c1)CC(=O)N3CCC2)c1ccc(Br)cc1 | 10.3 µg/mL (≈ 27.7 µM)
COCCn1c(SCC(=O)NC2CCCC2)nnc1-c1ccco1 | > 52.6 µg/mL
CC1CCC2(CC1)NC(=O)N(CC(=O)NCc1ccc(Cl)cc1)C2=O (stereo not drawn) | 6.3 µg/mL (≈ 17.3 µM)
Cc1cccc(-c2nc(CNC(=O)c3ccco3)cs2)c1 | > 44.8 µg/mL
CN(Cc1ccccc1)C(=O)COC(=O)CCC(=O)c1ccc(F)cc1 | 14.8 µg/mL (≈ 41.4 µM)
CC(C)CCn1cnc2c(oc3nc4c(cc32)CCCC4)c1=O | 43 µg/mL (≈ 138 µM)
CN(C(=O)CSc1ccc2c(c1)OCCO2)c1ccccc1 | > 47.3 µg/mL
CC(C)(C)OC(=O)N1Cc2ccccc2C[C@H]1C(=O)NC1CCCC1 | > 51.7 µg/mL
O=C(CSc1nncs1)NC1CCCCCCC1 | > 42.8 µg/mL
O=C(CN1CCN(c2ccccc2)CC1)Nc1ccncc1 | 38.6 µg/mL (≈ 130 µM)
CC(=O)N(OCc1ccc(OC(C)C)c(Cl)c1)C(C)=O | 38.1 µg/mL (≈ 127 µM)
CCOC(=O)c1cc2sccc2n1CC(=O)C(C)(C)C | < 0.6 µg/mL
O=C1CN(C(=O)COc2c(F)c(F)cc(F)c2F)c2ccccc2N1 | 44.4 µg/mL (≈ 125 µM)
O=C(O)c1cn(C2CCCCC2)c2ccccc2c1=O | > 40.7 µg/mL
COc1ccc(-c2noc(=O)n2Cc2ccc(C#N)cc2)cc1 | > 46.1 µg/mL
Cc1cc(OCC(=O)NC2CC2)c2c(C)c(C)c(=O)oc2c1 | 2.5 µg/mL (≈ 8.3 µM)

Structure (SMILES) | solubility kinetic
O=C(COC(=O)c1c(Cl)cccc1Cl)NC1CCCCCCC1 | 8.2 µg/mL (≈ 22.9 µM)
Cc1c(C=O)c2ccccn2c1C(=O)c1ccc(Cl)c([N+](=O)[O-])c1 | 1.6 µg/mL (≈ 4.67 µM)
CC(C)(C)c1ccc(C(=O)NCC(=O)N2CCCCCC2)cc1 | > 47.5 µg/mL
CCCCNC1=NCCS1 | > 23.7 µg/mL
Cc1ccc(CSC2=NCCN2C(=O)C(C)Oc2ccccc2)cc1 (stereo not drawn) | 4.4 µg/mL (≈ 12.4 µM)
Cc1cc(NC(=O)COC(=O)C2=COCCO2)c([N+](=O)[O-])cc1C | 3.7 µg/mL (≈ 11 µM)
O=C(CCNS(=O)(=O)c1ccc(F)c(Cl)c1)NCc1ccccc1F | 27.2 µg/mL (≈ 70 µM)
Cc1ccc(S(=O)(=O)CCC(=O)NC2CCCCC2)cc1 | > 46.4 µg/mL
CC(=O)NC(=S)Nc1ccc([N+](=O)[O-])cc1C | 3.5 µg/mL (≈ 13.8 µM)
CCOc1ccc(C(=O)NCC(=O)N2CCCC2)cc1 | > 41.5 µg/mL
CC(=O)Nc1cccc(NC(=S)Nc2cccc(Cl)c2C)c1 | 44.9 µg/mL (≈ 134 µM)
Cn1c(=S)[nH]c2scc(-c3cccs3)c2c1=O | > 42.1 µg/mL
CCOc1cccc(C(=O)NC(=S)Nc2ccc3c(c2)OCCO3)c1 | 4 µg/mL (≈ 11.2 µM)
Cc1cccc(N2CCN(CC(=O)NCc3ccc(Cl)cc3)CC2)c1C | 1.6 µg/mL (≈ 4.3 µM)
COc1ccccc1N1CCN(C(=O)CCc2ccccc2)CC1 | > 48.7 µg/mL
COc1ccccc1C(=O)NCCC(=O)N1CCCC(C)C1 (stereo not drawn) | > 45.7 µg/mL
CCS(=O)(=O)N1CCC(C(=O)Nc2cc([N+](=O)[O-])ccc2C)CC1 | > 53.3 µg/mL
CC1CCCC(C)N1S(=O)(=O)c1ccc(Cl)cc1 (stereo not drawn) | 2.7 µg/mL (≈ 9.38 µM)
CCc1ccc(CCC(=O)Nc2ccc(Br)cc2)o1 | 4.4 µg/mL (≈ 13.7 µM)
O=C(O)CNC(=S)N(Cc1ccccc1)Cc1ccccc1F | 47.4 µg/mL (≈ 143 µM)
O=S(=O)(c1cccc2cccc(Cl)c12)N1CCCC1 | 15 µg/mL (≈ 50.7 µM)
Cc1ccc(-n2c(C)nc3cc(Cl)ccc3c2=O)nc1 | > 42.9 µg/mL
CC1(C)CC(=O)C(C2=NC3(CCCCC3)Cc3ccccc32)=C(O)C1 | > 50.6 µg/mL
Cc1ccc(Nc2nc(-c3cccnc3)nc3ccccc23)cc1 | 0.6 µg/mL (≈ 1.92 µM)

Structure (SMILES) | solubility kinetic
O=c1cc(O)c2sc3nc(C(F)(F)F)c4c(c3c2[nH]1)CCCCC4 | > 53.2 µg/mL
Nc1c(C(=O)O)sc2nc(-c3ccccc3)cc(-c3ccc(F)cc3)c12 | 51.3 µg/mL (≈ 141 µM)
O=C(COC(=O)CN1C(=O)NC2(CCCCC2)C1=O)Nc1cc(F)ccc1F | > 59.3 µg/mL
CCOc1ccccc1NC(=O)c1ccc(OCC(=O)N2CCOCC2)c(OC)c1 | > 62.2 µg/mL
COc1ccc(Nc2nc(N)nc(CN3CCC(C)CC3)n2)cc1 | > 49.3 µg/mL
COc1ccc(N(Cc2cc3ccc(C)cc3[nH]c2=O)C(=O)C2CCCO2)cc1 (stereo not drawn) | 10.1 µg/mL (≈ 25.7 µM)
O=C(CNC(=O)c1ccccc1)Oc1ccc([N+](=O)[O-])cc1 | > 45 µg/mL
O=C(Nc1ccc(F)cc1)/C(=C1/CCCCCN1)[N+](=O)[O-] | > 44 µg/mL
CN(C(=O)c1cncc(Br)c1)C1C2CC3CC(C2)CC1C3 (stereo not drawn) | 48.1 µg/mL (≈ 138 µM)
COC(=O)CSc1[nH]c2ccccc2c1[N+](=O)[O-] | > 39.9 µg/mL
CCOC(=O)Cn1c(=O)cc(C)c2ccccc21 | > 36.8 µg/mL
COC(=O)[C@H](CCSC)NC(=O)c1cccnc1SC | 38.8 µg/mL (≈ 123 µM)
COc1ccc(-c2cc(C(=O)NCc3ccco3)c3ccccc3n2)cc1OC | 1.7 µg/mL (≈ 4.38 µM)
CN(CCc1ccccc1)Cc1nc(-c2cnccn2)no1 | 44 µg/mL (≈ 149 µM)
O=C(CCn1c(=S)oc2ccccc21)Nc1cccc(O)c1 | 8.6 µg/mL (≈ 27.4 µM)
O=C(O)c1csc(-c2ccc(Cl)cc2)n1 | > 36 µg/mL
Cc1ccccc1CN(c1ccc(C(=O)N2CCN(C)CC2)cc1)S(C)(=O)=O | > 60.2 µg/mL
CCn1c(NCCCO)nc2c(c1=O)C(C)(CC)Cc1ccccc1-2 (stereo not drawn) | 47 µg/mL (≈ 138 µM)
Cc1cc(OCCCC(=O)NCCc2ccccn2)ccc1Cl | > 49.9 µg/mL
CN(CC(=O)Nc1ccc(F)cc1)CC(=O)NC1CCCCC1 | > 48.2 µg/mL
O=C(CN1C(=O)NC2(CCCCCC2)C1=O)NCc1ccccc1 | > 49.4 µg/mL
Cc1ccc(NC(=O)C2C3CCC(O3)C2C(=O)O)cc1Cl (stereo not drawn) | 27.8 µg/mL (≈ 89.8 µM)
COc1ccc(N2C(=O)CCC2(C(N)=O)c2ccccc2)cc1 (stereo not drawn) | > 46.6 µg/mL
CCc1ccccc1NC(=O)C1COc2ccccc2O1 (stereo not drawn) | 33.4 µg/mL (≈ 118 µM)

Structure (SMILES) | solubility kinetic
COCCCn1c(=NC(C)=O)c(C#N)cc2c(=O)n3cccc(C)c3nc21 | 52.3 µg/mL (≈ 143 µM)
O=C(O)CCCC(=O)N1CCN(c2ncccn2)CC1 | > 41.7 µg/mL
O=C(CNC(=O)C1CCCC1)Nc1ccccc1Br | > 48.8 µg/mL
C[C@H](NC(=O)Nc1cccc(Br)c1)C(=O)O | > 43.1 µg/mL
O=C(Cc1cccs1)Nc1ccc(F)cc1F | 30 µg/mL (≈ 118 µM)
N#CC1(NC(=O)CN2CCc3ccccc3C2)CCCC1 | > 42.5 µg/mL
COc1cc(OC)c(C(=S)N2CCCC2)cc1OC | 38.9 µg/mL (≈ 138 µM)
Cc1ccc(C(=O)Nc2ccccc2C(=O)NCC2CCCO2)cc1 (stereo not drawn) | > 50.8 µg/mL
Cc1cc(C)c(NC(=O)Nc2ccc3c(c2)OCO3)c(C)c1 | 0.6 µg/mL (≈ 2.01 µM)
Cc1ccn2c(NC3CCCC3)c(-c3cccs3)nc2c1.Cl | 14.7 µg/mL
Cc1cc(C(=O)NCC(=O)Nc2ccc(F)c(F)c2)c(C)o1 | 11.3 µg/mL (≈ 36.7 µM)
O=C(O)c1ccc(N2C(=O)CSC2=S)cc1 | > 38 µg/mL
S=C(c1c[nH]c2ccccc12)N1CCCC1 | > 34.5 µg/mL
CCCCCC(O)(CCN1CCCCC1)c1ccccc1.Cl (stereo not drawn) | > 48.9 µg/mL
NC(N)=Nc1nc2cc([N+](=O)[O-])ccc2o1 | 6.4 µg/mL (≈ 28.9 µM)
CCNC(=O)CCSc1nc(C)cc(C)n1 | > 35.9 µg/mL
O=C(CNC(=O)c1ccc(Br)o1)NC1CCCCC1 | > 49.4 µg/mL
COc1ccccc1Nc1ccc2nonc2c1[N+](=O)[O-] | 2 µg/mL (≈ 6.99 µM)
O=C(CC(SCCO)c1ccc([N+](=O)[O-])cc1)c1ccco1 (stereo not drawn) | 3.7 µg/mL (≈ 11.5 µM)
Cc1ccccc1-n1c(C)nc2ccsc2c1=O.Cl | > 43.9 µg/mL
Cc1ccc(-c2onc3ccc(Br)cc23)cc1 | < 0.6 µg/mL
O=C(NC1CCCCCC1)C1CCN(S(=O)(=O)c2cnc[nH]2)CC1 | 50.7 µg/mL (≈ 143 µM)
